Assay results published in publication PMC7584476, “Safety and efficacy of BAY1436032 in IDH1-mutant AML: phase I study results” (Leukemia, 2020).
“Also recorded” adds a separate entry of the source.

System: subjects with mIDH1 advanced AML
Test: Phase I study: safety and tolerability (TEAE, DLT, MTD, ECG)
Type: in vivo
Description: This study was an open-label, nonrandomized, multicenter phase I trial. Subjects were screened at 13 hospital sites in 2 countries (USA and Germany). The study was to consist of dose-escalation followed by dose-expansion. The MTD identified in dose-escalation was to be used in the dose-expansion. If MTD was not reached in dose-escalation, a dose for the expansion would be selected based on available PK, pharmacodynamic, safety, and efficacy data. BAY1436032 was administered twice-daily (BID) in continuous 28-day cycles. In dose-escalation, up to 9 evaluable subjects could be enrolled per cohort, with a minimum of 3 dose-limiting toxicity (DLT)-free evaluable subjects required prior to escalating to the next highest dose. Bayesian dose-DLT modeling was performed to help guide dosing decisions.
DLTs were differentially defined for nonhematopoietic versus hematopoietic toxicities. Nonhematopoietic toxicities of ≥grade 3 occurring during the first cycle of treatment were to be considered DLTs with the following exceptions: (1) Alopecia and nausea controlled by medical management; (2) Tumor lysis syndrome if successfully managed clinically and resolved within 7 days without any end-organ damage; (3) Differentiation syndrome (DS) if successfully managed clinically and resolved within 7 days without any end-organ damage; (4) Asymptomatic ≥grade 3 electrolyte abnormalities not considered clinically significant by the investigator. […] For certain toxicities such as laboratory assessments without a clear clinical correlate, a discussion between the investigator and the sponsor determined whether the adverse event (AE) should be assessed as a DLT.
DLTs identified during the first cycle of treatment were used to guide dose-escalation decisions and to determine the MTD, and if safety issues appeared in subsequent cycles they were also to be considered. Hydroxyurea was permitted during the first cycle if white blood cell (WBC) exceeded 20 × 10^9/L and was also permitted for treatment of DS.
Safety and tolerability were evaluated by analysis of adverse events, physical examinations, vital signs, ECOG performance status, and various laboratory assessments. For safety monitoring, subjects were scheduled for clinic visits every week for the initial three cycles of treatment, after which time visits could be reduced to every-other-week with investigator and sponsor agreement. Cardiac function was assessed with triplicate 12-lead electrocardiograms (ECG) at screening, C1-D1, C1-D2, C1-D15, D1 of every subsequent cycle, and at treatment end. […] AEs are presented by the Medical Dictionary for Regulatory Activities (MedDRA) v21.1.

`C[C@H]1C[C@@H](n2c(Nc3ccc(OC(F)(F)F)cc3)nc3cc(CCC(=O)O)ccc32)CC(C)(C)C1` [BAY1436032] was tested, and the “TEAE Sepsis Grade 5” value (1500 mg BID, n=9) was 1, the “TEAE Sinus tachycardia Grade 1” value (1500 mg BID, n=9) was 1 and the “TEAE Thrombocytopenia Grade 4” value (1500 mg BID, n=9) was 2. The “TEAE Vomiting Grade 1” value (1500 mg BID, n=9) was 3, the “TEAE Weight decreased Grade 1” value (1500 mg BID, n=9) was 0 and the “TEAE Weight decreased Grade 2” value (1500 mg BID, n=9) was 0. For the same compound, the “TEAE Weight decreased Grade 3” value (1500 mg BID, n=9) was 1, the “Deaths during treatment or within 30 days of discontinuation” value (27 treated) was “Six of 27” and the “Related TEAE DS grade 3” value (27 treated) was “single subject”. For the same compound, the “Related TEAE Fatigue Grade 3” value (27 treated) was “single subject”, the “Related TEAE amylase increase grade 3” value (27 treated) was “single subject” and the “Related TEAE anemia grade 4” value (27 treated) was “single subject”. For the same compound, the “Related TEAE decreased WBC count grade 3” value (27 treated) was “single subject”, the “Related TEAE decreased neutrophil count grade 4” value (27 treated) was “single subject” and the “Related TEAE decreased platelet count grade 4” value (27 treated) was “single subject”. For the same compound, the “Related TEAE febrile neutropenia grade 3” value (27 treated) was “single subject”, the “Related TEAE hyponatremia grade 3” value (27 treated) was “single subject” and the “Related TEAE ileus grade 4” value (27 treated) was “single subject”. For the same compound, the “Related TEAE lung infiltration grade 3” value (27 treated) was “single subject”, the “Related TEAE peripheral edema grade 3” value (27 treated) was “single subject” and the “Related TEAE pneumonitis grade 3” value (27 treated) was “single subject”. For the same compound, the “Related TEAE sepsis grade 4” value (27 treated) was “single subject”, the “Subjects with DS or symptoms associated with DS” value (27 treated) was 19% and the “Subjects with at least 1 TEAE of any grade related to BAY1436032” value (27 treated) was “Seventeen of 27”. The “Subjects with at least 1 TEAE of ≥grade 3 related to BAY1436032” value (27 treated) was “Seven of 27”, the “Subjects with at least 1 TEAE ≥ grade 3 irrespective of relationship” value (27 treated) was “Twenty-four” and the Maximum tolerated dose (300 to 1500 mg BID) was “not identified; also recorded: No MTD was identified”. For the same compound, the “Related TEAE Decreased appetite Grade 1” value (Total, n=27) was 1 (4) n (%), the “Related TEAE Decreased appetite Grade 2” value (Total, n=27) was 1 (4) n (%) and the “Related TEAE Diarrhea Grade 2” value (Total, n=27) was 2 (7) n (%). The “Related TEAE Differentiation syndrome Grade 2” value (Total, n=27) was 1 (4) n (%), the “Related TEAE Differentiation syndrome Grade 3” value (Total, n=27) was 1 (4) n (%) and the “Related TEAE Dyspnea Grade 1” value (Total, n=27) was 2 (7) n (%). The “Related TEAE Dyspnea Grade 2” value (Total, n=27) was 1 (4) n (%), the “Related TEAE Fatigue Grade 1” value (Total, n=27) was 1 (4) n (%) and the “Related TEAE Fatigue Grade 2” value (Total, n=27) was 2 (7) n (%). For the same compound, the “Related TEAE Fatigue Grade 3” value (Total, n=27) was 1 (4) n (%), the “Related TEAE Hypomagnesaemia Grade 1” value (Total, n=27) was 2 (7) n (%) and the “Related TEAE Nausea Grade 1” value (Total, n=27) was 4 (15) n (%). For the same compound, the “Related TEAE Nausea Grade 2” value (Total, n=27) was 1 (4) n (%), the “Related TEAE Sinus tachycardia Grade 1” value (Total, n=27) was 2 (7) n (%) and the “Related TEAE Vomiting Grade 1” value (Total, n=27) was 4 (15) n (%). For the same compound, the “TEAE Abdominal pain upper Grade 1” value (Total, n=27) was 2 (7) n (%), the “TEAE Abdominal pain upper Grade 2” value (Total, n=27) was 1 (4) n (%) and the “TEAE Acute kidney injury Grade 1” value (Total, n=27) was 1 (4) n (%). For the same compound, the “TEAE Acute kidney injury Grade 2” value (Total, n=27) was 1 (4) n (%), the “TEAE Acute kidney injury Grade 3” value (Total, n=27) was 1 (4) n (%) and the “TEAE Anaemia Grade 3” value (Total, n=27) was 4 (15) n (%). The “TEAE Anaemia Grade 4” value (Total, n=27) was 1 (4) n (%), the “TEAE Anxiety Grade 1” value (Total, n=27) was 2 (7) n (%) and the “TEAE Anxiety Grade 2” value (Total, n=27) was 1 (4) n (%). The “TEAE Arthralgia Grade 1” value (Total, n=27) was 1 (4) n (%), the “TEAE Arthralgia Grade 2” value (Total, n=27) was 2 (7) n (%) and the “TEAE Constipation Grade 1” value (Total, n=27) was 4 (15) n (%). For the same compound, the “TEAE Constipation Grade 2” value (Total, n=27) was 1 (4) n (%), the “TEAE Contusion Grade 1” value (Total, n=27) was 3 (11) n (%) and the “TEAE Contusion Grade 2” value (Total, n=27) was 1 (4) n (%). For the same compound, the “TEAE Cough Grade 1” value (Total, n=27) was 3 (11) n (%), the “TEAE Cough Grade 2” value (Total, n=27) was 2 (7) n (%) and the “TEAE Decreased appetite Grade 1” value (Total, n=27) was 5 (19) n (%). The “TEAE Decreased appetite Grade 2” value (Total, n=27) was 3 (11) n (%), the “TEAE Decreased appetite Grade 3” value (Total, n=27) was 1 (4) n (%) and the “TEAE Diarrhea Grade 1” value (Total, n=27) was 7 (26) n (%). The “TEAE Diarrhea Grade 2” value (Total, n=27) was 3 (11) n (%), the “TEAE Dry skin Grade 1” value (Total, n=27) was 5 (19) n (%) and the “TEAE Dyspnoea Grade 1” value (Total, n=27) was 4 (15) n (%). For the same compound, the “TEAE Dyspnoea Grade 2” value (Total, n=27) was 2 (7) n (%), the “TEAE Dyspnoea Grade 3” value (Total, n=27) was 3 (11) n (%) and the “TEAE Epistaxis Grade 1” value (Total, n=27) was 3 (11) n (%). The “TEAE Epistaxis Grade 2” value (Total, n=27) was 2 (7) n (%), the “TEAE Epistaxis Grade 3” value (Total, n=27) was 1 (4) n (%) and the “TEAE Fall Grade 1” value (Total, n=27) was 4 (15) n (%). For the same compound, the “TEAE Fatigue Grade 1” value (Total, n=27) was 4 (15) n (%), the “TEAE Fatigue Grade 2” value (Total, n=27) was 4 (15) n (%) and the “TEAE Fatigue Grade 3” value (Total, n=27) was 3 (11) n (%). The “TEAE Febrile neutropenia Grade 3” value (Total, n=27) was 7 (26) n (%), the “TEAE General physical health deterioration Grade 3” value (Total, n=27) was 2 (7) n (%) and the “TEAE General physical health deterioration Grade 5” value (Total, n=27) was 1 (4) n (%). The “TEAE Gingivitis Grade 1” value (Total, n=27) was 3 (11) n (%), the “TEAE Haematuria Grade 1” value (Total, n=27) was 2 (7) n (%) and the “TEAE Haematuria Grade 2” value (Total, n=27) was 1 (4) n (%). The “TEAE Haematuria Grade 3” value (Total, n=27) was 1 (4) n (%), the “TEAE Headache Grade 1” value (Total, n=27) was 1 (4) n (%) and the “TEAE Headache Grade 2” value (Total, n=27) was 2 (7) n (%). For the same compound, the “TEAE Headache Grade 3” value (Total, n=27) was 1 (4) n (%), the “TEAE Hyperkalaemia Grade 1” value (Total, n=27) was 2 (7) n (%) and the “TEAE Hyperkalaemia Grade 4” value (Total, n=27) was 1 (4) n (%). For the same compound, the “TEAE Hypertension Grade 2” value (Total, n=27) was 2 (7) n (%), the “TEAE Hypertension Grade 3” value (Total, n=27) was 1 (4) n (%) and the “TEAE Hyperuricaemia Grade 1” value (Total, n=27) was 4 (15) n (%). The “TEAE Hyperuricaemia Grade 3” value (Total, n=27) was 1 (4) n (%), the “TEAE Hypokalaemia Grade 1” value (Total, n=27) was 3 (11) n (%) and the “TEAE Hypokalaemia Grade 2” value (Total, n=27) was 1 (4) n (%). The “TEAE Hypokalaemia Grade 3” value (Total, n=27) was 2 (7) n (%), the “TEAE Hyponatraemia Grade 1” value (Total, n=27) was 2 (7) n (%) and the “TEAE Hyponatraemia Grade 3” value (Total, n=27) was 1 (4) n (%). The “TEAE Hypophosphataemia Grade 1” value (Total, n=27) was 1 (4) n (%), the “TEAE Hypophosphataemia Grade 2” value (Total, n=27) was 2 (7) n (%) and the “TEAE Leukocytosis Grade 2” value (Total, n=27) was 2 (7) n (%). The “TEAE Leukocytosis Grade 3” value (Total, n=27) was 2 (7) n (%), the “TEAE Lung infection Grade 3” value (Total, n=27) was 3 (11) n (%) and the “TEAE Lung infection Grade 5” value (Total, n=27) was 1 (4) n (%). For the same compound, the “TEAE Nausea Grade 1” value (Total, n=27) was 5 (19) n (%), the “TEAE Nausea Grade 2” value (Total, n=27) was 2 (7) n (%) and the “TEAE Nausea Grade 3” value (Total, n=27) was 2 (7) n (%). For the same compound, the “TEAE Oedema peripheral Grade 1” value (Total, n=27) was 6 (22) n (%), the “TEAE Oedema peripheral Grade 3” value (Total, n=27) was 2 (7) n (%) and the “TEAE Pain in extremity Grade 1” value (Total, n=27) was 2 (7) n (%). The “TEAE Pain in extremity Grade 2” value (Total, n=27) was 1 (4) n (%), the “TEAE Pneumonia Grade 1” value (Total, n=27) was 1 (4) n (%) and the “TEAE Pneumonia Grade 2” value (Total, n=27) was 2 (7) n (%). For the same compound, the “TEAE Pneumonia Grade 3” value (Total, n=27) was 3 (11) n (%), the “TEAE Pneumonia fungal Grade 2” value (Total, n=27) was 1 (4) n (%) and the “TEAE Pneumonia fungal Grade 3” value (Total, n=27) was 1 (4) n (%). The “TEAE Pneumonia fungal Grade 4” value (Total, n=27) was 1 (4) n (%), the “TEAE Productive cough Grade 1” value (Total, n=27) was 2 (7) n (%) and the “TEAE Productive cough Grade 2” value (Total, n=27) was 1 (4) n (%). The “TEAE Pyrexia Grade 1” value (Total, n=27) was 4 (15) n (%), the “TEAE Pyrexia Grade 2” value (Total, n=27) was 1 (4) n (%) and the “TEAE Pyrexia Grade 3” value (Total, n=27) was 3 (11) n (%). For the same compound, the “TEAE Rash Grade 1” value (Total, n=27) was 1 (4) n (%), the “TEAE Rash Grade 2” value (Total, n=27) was 3 (11) n (%) and the “TEAE Sepsis Grade 4” value (Total, n=27) was 3 (11) n (%). The “TEAE Sepsis Grade 5” value (Total, n=27) was 2 (7) n (%), the “TEAE Sinus tachycardia Grade 1” value (Total, n=27) was 3 (11) n (%) and the “TEAE Thrombocytopenia Grade 4” value (Total, n=27) was 3 (11) n (%). The “TEAE Vomiting Grade 1” value (Total, n=27) was 7 (26) n (%), the “TEAE Weight decreased Grade 1” value (Total, n=27) was 3 (11) n (%) and the “TEAE Weight decreased Grade 2” value (Total, n=27) was 3 (11) n (%). For the same compound, the “TEAE Weight decreased Grade 3” value (Total, n=27) was 1 (4) n (%), the “Subjects with DS or symptoms associated with DS” value (count of 27 treated) was “Five of 27” and the Dose-limiting toxicities (grade 4 ileus, subject 21, cohort 4) was “single DLT”. For the same compound, the “Clinically significant ECG changes such as QTc prolongation related to treatment” value (in vivo) was “no clinically significant ECG”, the “Deaths attributed to study drug” value (in vivo) was “none” and the “Episodes of ≥grade 3 QT prolongation” value (in vivo) was “no episodes”.
